According to patent US20230159509A1 (Amathus Therapeutics, Inc., priority 2020, published 2023):

Target: T1, TRAP1 enzyme (Homo sapiens, UniProt Q12931)
T1 construct: 150 nM Trap1 enzyme was incubated with various concentrations of the test compound
T1 sequence (Q12931 60-704): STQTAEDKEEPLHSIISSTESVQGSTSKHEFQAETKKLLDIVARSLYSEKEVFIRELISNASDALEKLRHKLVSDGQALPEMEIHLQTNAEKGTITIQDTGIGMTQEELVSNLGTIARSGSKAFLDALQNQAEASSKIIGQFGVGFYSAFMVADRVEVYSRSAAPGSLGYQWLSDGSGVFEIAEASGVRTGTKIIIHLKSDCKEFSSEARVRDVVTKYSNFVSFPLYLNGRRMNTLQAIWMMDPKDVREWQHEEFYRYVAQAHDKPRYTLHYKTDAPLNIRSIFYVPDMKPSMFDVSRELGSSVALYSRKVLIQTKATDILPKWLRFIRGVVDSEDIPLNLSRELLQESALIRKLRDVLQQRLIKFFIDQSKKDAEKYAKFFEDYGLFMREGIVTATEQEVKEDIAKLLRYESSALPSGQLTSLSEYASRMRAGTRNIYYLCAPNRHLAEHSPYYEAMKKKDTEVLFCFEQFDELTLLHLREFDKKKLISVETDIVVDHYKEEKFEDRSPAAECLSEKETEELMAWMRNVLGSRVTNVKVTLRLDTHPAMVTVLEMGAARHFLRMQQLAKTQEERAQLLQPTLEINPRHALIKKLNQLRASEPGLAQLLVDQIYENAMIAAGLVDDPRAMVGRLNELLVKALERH
Assay: ADP Glo assay of TRAP1 ATPase activity
Format: biochemical
Conditions: for EC50: concentration for half maximal activation, read-out: ADP GLO DRC: GeoMean EC50; for Emax: maximal percent activation, read-out: ADP GLO DRC: Mean Emax
Procedure: Potency of test compounds to modulate the ATPase activity of TRAP1 enzyme was evaluated using ADP Glo assay. The assay is based on quantification of the ADP generated from ATP in the ATPase reaction. The assay is performed in two steps; first, after the ATPase reaction an equal volume of ADP-Glo™ Reagent is added to terminate the ATPase reaction and deplete the remaining ATP. Second, the Kinase Detection Reagent is added to simultaneously convert ADP to ATP and allow the newly synthesized ATP to be measured using a luciferase/luciferin reaction.
All the assays were carried out in a 384-well Proxiplate. The buffer used was 25 mM Pipes pH-7.5, 40 mM KCl, 0.05 mM MgCl2, 0.025% BSA, 0.316 mM EGTA, 0.003% Empigen, 0.01% Igepal. 150 nM Trap1 enzyme was incubated with various concentrations of the test compound (0.79 μM-100 μM) at 37° C. for 30 mins (except in blank wells). 20 μM ATP was added to each well to start the reaction. The plate was spun for 1 min at 1200 rpm and then incubated at 37° C. for 60 mins. 5 μl of ADP Glo reagent was added to all the wells and spun the plate for 1 min at 1200 rpm and kept it on a shaker at ambient temperature for 60 mins. 10 μl of kinase detection mix was added to all the wells and the plate was read for Luminescence at 495 nm. The amount of ADP released was estimated from ATP/ADP standard curve generated at the same experimental conditions. Emax (Maximal percent activation) and EC50 (concentration for half maximal activation) were estimated by fitting the dose response data to a sigmoidal curve fitting equation using Graphpad Prism software V. 8.

Row | EC50 [µM] | Emax [%] | Structure (SMILES)
1 | 20 to 100 | 119 to 159 | COc1ncc(NC(=O)c2noc3c2CCCC3)cc1S(=O)(=O)Nc1ccc(Cl)cc1 [compound 1194, N-(5-(N-(4-chlorophenyl)sulfamoyl)-6-methoxypyridin-3-yl)-4,5,6,7-tetrahydrobenzo[d]isoxazole-3-carboxamide]
2 | 10 to 20 | 160 to 199 | COc1ncc(NC(=O)c2ncccc2C(=O)c2ccccc2)cc1S(=O)(=O)Nc1ccc(Cl)cc1 [compound 1195, 3-benzoyl-N-(5-(N-(4-chlorophenyl)sulfamoyl)-6-methoxypyridin-3-yl)picolinamide]
3 | < 10 | 160 to 199 | COc1ncc(NC(=O)c2ccccc2C(=O)c2ccccc2)cc1S(=O)(=O)Nc1ccc(Cl)cc1 [compound 1197, 2-benzoyl-N-(5-(N-(4-chlorophenyl)sulfamoyl)-6-methoxypyridin-3-yl)benzamide]
4 | 10 to 20 | 160 to 199 | COc1ncc(NC(=O)c2ccc3nccnc3c2)cc1S(=O)(=O)Nc1ccc(Cl)cc1 [compound 1198, N-(5-(N-(4-chlorophenyl)sulfamoyl)-6-methoxypyridin-3-yl) quinoxaline-6-carboxamide]
5 | 10 to 20 | 160 to 199 | COc1ncc(NC(=O)c2cc(-n3ccnc3)ccn2)cc1S(=O)(=O)Nc1ccc(Cl)cc1 [compound 1203, N-(5-(N-(4-chlorophenyl)sulfamoyl)-6-methoxypyridin-3-yl)-4-(1H-imidazol-1-yl)picolinamide]
6 | 10 to 20 | 160 to 199 | COc1ncc(NC(=O)c2cccc(-n3cncn3)c2)cc1S(=O)(=O)Nc1ccc(Cl)cc1 [compound 1204, N-(5-(N-(4-chlorophenyl)sulfamoyl)-6-methoxypyridin-3-yl)-3-(1H-1,2,4-triazol-1-yl)benzamide]
7 | 20 to 100 | 119 to 159 | COc1ncc(NC(=O)C(C)n2cc(Br)cn2)cc1S(=O)(=O)Nc1ccc(Cl)cc1 (stereo not shown) [compound 1213, (4-bromo-1H-pyrazol-1-yl)-N-(5-(N-(4-chlorophenyl)sulfamoyl)-6-methoxypyridin-3-yl)propanamide]
8 | 20 to 100 | 119 to 159 | Cc1ncoc1C(=O)Nc1cc(S(=O)(=O)Nc2ccc(Cl)cc2)cc[n+]1[O-] [compound 1294, 4-(N-(4-chlorophenyl)sulfamoyl)-2-(4-methyloxazole-5-carboxamido)pyridine 1-oxide]
9 | 10 to 20 | 160 to 199 | COc1ncc(NC(=O)c2ncc(-c3ccccc3)o2)cc1S(=O)(=O)Nc1c(Cl)cccc1C(F)(F)F [compound 1303, N-(5-(N-(2-chloro-6-(trifluoromethyl)phenyl)sulfamoyl)-6-methoxypyridin-3-yl)-5-phenyloxazole-2-carboxamide]
10 | < 10 | 200 to 300 | COc1ncc(NC(=O)c2coc(-c3ccccc3)n2)cc1S(=O)(=O)Nc1c(C)cccc1C [compound 1312, N-(5-(N-(2,6-dimethylphenyl)sulfamoyl)-6-methoxypyridin-3-yl)-2-phenyloxazole-4-carboxamide]
11 | 10 to 20 | 160 to 199 | O=C(Nc1cc(S(=O)(=O)Nc2ccc(Cl)cc2)cc[n+]1[O-])c1cnc(-c2ccccc2)[nH]1 [compound 1321, 4-(N-(4-chlorophenyl)sulfamoyl)-2-(2-phenyl-1H-imidazole-5-carboxamido) pyridine 1-oxide]
12 | < 10 | 119 to 159 | COc1ncc(NC(=O)c2csc(-c3ccccc3)n2)cc1S(=O)(=O)Nc1ccccc1C [compound 1350, N-(6-methoxy-5-(N-(o-tolyl)sulfamoyl)pyridin-3-yl)-2-phenylthiazole-4-carboxamide]
13 | 10 to 20 | 119 to 159 | COc1ncc(NC(=O)c2csc(-c3ccncc3)n2)cc1S(=O)(=O)Nc1c(C)cccc1C [compound 1351, N-(5-(N-(2,6-dimethylphenyl)sulfamoyl)-6-methoxypyridin-3-yl)-2-(pyridin-4-yl)thiazole-4-carboxamide]
14 | 20 to 100 | 200 to 300 | COc1ncc(NC(=O)c2ncc(-c3ccccc3)o2)cc1S(=O)(=O)Nc1c(C#N)cccc1C(F)(F)F [compound 1358, N-(5-(N-(2-cyano-6-(trifluoromethyl)phenyl)sulfamoyl)-6-methoxypyridin-3-yl)-5-phenyloxazole-2-carboxamide]
15 | 20 to 100 | 119 to 159 | COc1ncc(NC(=O)c2cn(C)c3ncccc23)cc1S(=O)(=O)Nc1ccc(Cl)cc1 [compound 1359, N-(5-(N-(4-chlorophenyl)sulfamoyl)-6-methoxypyridin-3-yl)-1-methyl-1H-pyrrolo [2,3-b]pyridine-3-carboxamide]
16 | 10 to 20 | 200 to 300 | O=C(Nc1cc(S(=O)(=O)Nc2ccc(Cl)cc2)ccn1)c1cnc(-c2ccccc2)[nH]1 [compound 1361, N-(4-(N-(4-chlorophenyl)sulfamoyl)pyridin-2-yl)-2-phenyl-1H-imidazole-5-carboxamide]
17 | 20 to 100 | > 300 | COc1ncc(NC(=O)c2ccnc3c2OCCC3)cc1S(=O)(=O)Nc1c(C)cccc1C [compound 1364, N-(5-(N-(2,6-dimethylphenyl)sulfamoyl)-6-methoxypyridin-3-yl)-3,4-dihydro-2H-pyrano[3,2-b]pyridine-8-carboxamide]
18 | < 10 | 200 to 300 | COc1ncc(NC(=O)c2cccc3ocnc23)cc1S(=O)(=O)Nc1c(C)cccc1C [compound 1366, N-(5-(N-(2,6-dimethylphenyl)sulfamoyl)-6-methoxypyridin-3-yl)benzo[d]oxazole-4-carboxamide]
19 | 20 to 100 | > 300 | COc1ncc(NC(=O)c2cccc3ncoc23)cc1S(=O)(=O)Nc1c(C)cccc1C [compound 1367, N-(5-(N-(2,6-dimethylphenyl)sulfamoyl)-6-methoxypyridin-3-yl)benzo[d]oxazole-7-carboxamide]
20 | 20 to 100 | 160 to 199 | COc1ncc(NC(=O)c2ncc(-c3ccccc3)o2)cc1S(=O)(=O)Nc1c(F)cccc1C(F)(F)F [compound 1377, N-(5-(N-(2-fluoro-6-(trifluoromethyl)phenyl)sulfamoyl)-6-methoxypyridin-3-yl)-5-phenyloxazole-2-carboxamide]
21 | 20 to 100 | 200 to 300 | COc1ncc(NC(=O)c2cccc3c2OC(C)(C)C3)cc1S(=O)(=O)Nc1c(C)cccc1C [compound 1379, N-(5-(N-(2,6-dimethylphenyl)sulfamoyl)-6-methoxypyridin-3-yl)-2,2-dimethyl-2,3-dihydrobenzofuran-7-carboxamide]
22 | < 10 | > 300 | COc1ncc(NC(=O)c2cc3c(C)nn(C)c3s2)cc1S(=O)(=O)Nc1c(C)cccc1C [compound 1380, N-(5-(N-(2,6-dimethylphenyl)sulfamoyl)-6-methoxypyridin-3-yl)-1,3-dimethyl-1H-thieno[2,3-c]pyrazole-5-carboxamide]
23 | 20 to 100 | 200 to 300 | COc1ncc(NC(=O)c2csc(-c3ccccc3)n2)cc1S(=O)(=O)Nc1ccc(Cl)nc1C [compound 1382, N-(5-(N-(6-chloro-2-methylpyridin-3-yl)sulfamoyl)-6-methoxypyridin-3-yl)-2-phenylthiazole-4-carboxamide]
24 | 20 to 100 | > 300 | COc1ncc(NC(=O)c2csc(-c3ccccc3)n2)cc1S(=O)(=O)Nc1ncc(Cl)cn1 [compound 1383, N-(5-(N-(5-chloropyrimidin-2-yl)sulfamoyl)-6-methoxypyridin-3-yl)-2-phenylthiazole-4-carboxamide]
25 | 10 to 20 | 160 to 199 | COc1ncc(NC(=O)c2csc(-c3ccccc3)n2)cc1S(=O)(=O)Nc1ccc(Cl)cn1 [compound 1385, N-(5-(N-(5-chloropyridin-2-yl)sulfamoyl)-6-methoxypyridin-3-yl)-2-phenylthiazole-4-carboxamide]
26 | < 10 | 200 to 300 | COc1cccc(OC)c1NS(=O)(=O)c1cc(NC(=O)c2csc(-c3ccccc3)n2)cnc1OC [compound 1386, N-(5-(N-(2,6-dimethoxyphenyl)sulfamoyl)-6-methoxypyridin-3-yl)-2-phenylthiazole-4-carboxamide]
